The source of these data is PubChem BioAssay AID1963854 (Molecular Pharmacology Branch, DTP, NCI, 2024).

A word on the viability, T/C: it is the ratio of treated to control. One may read the IC50 as the concentration that inhibits the measured activity by half.

This assay deals with 186277-243-T-J2-PDC complex spheroid viability. Description: Anticancer human tumor 186277-243-T-J2-PDC patient-derived colon adenocarcinoma cell line growth inhibition [POLQ]. The note with it: for viability, T/C: stronger effect = lower value. The method, then:
Multicellular complex tumor spheroid response to Polymerase (POL) inhibitors (novobiocin, ART-558, RP6685) in combination with a variety of drugs and investigational agents in selected tumor cell lines
The POL inhibitors (novobiocin, ART-558, and RP6685) were evaluated both individually and in combination with standard of care and investigational anticancer small molecules within a complex spheroid model of solid tumors. . Complex spheroids include a stromal component modeled by human endothelial cells (HUVEC) and fibroblasts modeled by human mesenchymal stem cells (MSCs). The concentration ranges selected for each drug and investigational agent were based upon clinically achievable concentrations if the clinical Cmax of the agent was known.
Compounds. The drugs and investigational agents: novobiocin (NSC847541), ART-558 (NSC835418), RP-6685 (NSC848927), peposertib (NSC802822), ceralasertib (NSC780249), elimusertib (NSC800525), camonsertib (NSC841442), AZD-1390 (NSC803789), olaparib (NSC753686), talazoparib (NSC767125), rucaparib (NSC756644), sotorasib (NSC818433), MRTX-1133 (NSC836407), SN-38 (NSC673596), topotecan (NSC609699), epotoside (NSC141540), doxorubicin (NSC123127), gemcitabine (NSC613327), 5-fluorouracil (NSC19893), paclitaxel (NSC125973), vemurafenib (NSC761431), MSA-2 (NSC828583), SN-011 (NSC837082), adavosertib (NSC754352), prexasertib (NSC758257), carboplatin (NSC241240) and oxaliplatin (NSC266046), were obtained from the National Cancer Institute (NCI) Developmental Therapeutics Program Chemical Repository (21). The FDA-approved anticancer drug set is available from the Developmental Therapeutics Program at https://dtp.cancer.gov/organization/dscb/obtaining/. […] The stock solutions were prepared in dimethyl sulfoxide (DMSO, Sigma-Aldrich, St. Louis, MO, cat. D2650), except for the platinum compounds which were prepared in saline (Quality Biological, Gaithersburg, MD, cat. 114-055-101), at 800-fold the tested concentration and stored at -70 degrees C prior to their use. All drugs and investigational agents were tested over a range starting from a high concentration at or near the clinical Cmax and decreasing in half-log increments. If the clinical Cmax for an agent had not been determined, the highest concentration tested was 10 microM, except for SN-38, which was tested at a high concentration of 1 microM.
Cell Culture. All cells were maintained in an incubator at 37 degrees C and 5% CO2 with 95% humidity. The PDC lines were cultured according to standard operating procedures established by the NCI PDMR (https://pdmr.cancer.gov). Table 3 of the manuscript, lists the cell lines along with the number of the three cell types plated to form the mct-spheroids and media for tumor cell growth. After thawing, all PDC lines, except 997537-175-T-J1-PDC and 415267-285-R-J2-PDC, were cultured in Matrigel-coated flasks prepared with a working solution of 1X Ham's F-12 nutrient mix, without supplementation (Thermo Fisher Scientific, cat. 11765054), 100 U/mL penicillin-streptomycin (Thermo Fisher Scientific, cat. 15140122), and 2.5% Matrigel (Corning Inc., Corning, NY, cat. 354248) for the first three passages. The two PDC lines 997537-175-T-J1-PDC and 415267-285-R-J2-PDC were cultured on uncoated flasks. The 857933-349-R-J2-PDC line was cultured in 6C/Colon 1B media containing advanced DMEM/F-12 (Thermo Fisher Scientific, cat. 12634028), 10 mM HEPES (Thermo Fisher Scientific, cat. 15630080), 1X GlutaMAX supplement (Thermo Fisher Scientific, cat. 35050061), 0.1 mg/mL primocin (InvivoGen, San Diego, CA, cat. ant-pm-2), 10% defined fetal bovine serum, heat inactivated (HyClone Laboratories Inc., Logan, UT, cat. SH30070.03HI), 50% L-WRN conditioned media (ATCC, cat. CRL-3276), 1.25 mM N-Acetyl-L-cysteine (Sigma-Aldrich, cat. A9165), 10 mM nicotinamide (Sigma-Aldrich, cat. N0636), 1X B-27 supplement (Thermo Fisher Scientific, cat. 17504044), 1X N-2 supplement (Thermo Fisher Scientific, cat. […]

Where “and” joins values, the source holds several entries; their conditions need not be identical. Identical values can stand only once.
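Note: spheroids exposed to compounds for seven days.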

With `CC1COCCN1c1cc(-c2ccnn2C)c2ccnc(-c3ccn[nH]3)c2n1` (configuration not stated), the viability, T/C was 71.3% and 65.3% and 109% (compound 0.0316 µM); 13% and 10.7% and 26.4% (compound 0.1 µM); 5.52% and 4.67% and 10.7% (compound 0.316 µM); 4.69% and 4.34% and 7.36% (compound 1 µM); 4.26% and 2.97% and 6.64% (compound 3.16 µM); 4.3% and 3.61% and 9.38% (compound 10 µM). Also, the IC50 (curve of compound) is 48.2 nM and 43.7 nM and 72.2 nM.

Consider `C=CCn1c(=O)c2cnc(Nc3ccc(N4CCN(C)CC4)cc3)nc2n1-c1cccc(C(C)(C)O)n1`, for which the viability, T/C runs as follows: (compound 0.00316 µM) 95.7% and 86.8% and 99.2%; (compound 0.01 µM) 96% and 97.5% and 95.8%; (compound 0.0316 µM) 97.8% and 104% and 94.2%; (compound 0.1 µM) 93.9% and 91.6% and 113%; (compound 0.316 µM) 13.8% and 27.6% and 28.5%; (compound 1 µM) 7.74% and 14.5% and 12.9%. Besides, the IC50 (curve of compound) was 188 nM and 211 nM and 224 nM.

Take `Nc1ccc(C#CCN(C(=O)Cc2ncc(C(F)(F)F)cc2C(F)(F)F)c2ccc(F)cc2)nn1`: the viability, T/C was 103% [middle of 13 runs] (compound 0.0316 µM); 102% [middle of 13 runs] (compound 0.1 µM); 98.7% [middle of 13 runs] (compound 0.316 µM); 101% [middle of 13 runs] (compound 1 µM); 94.9% [middle of 13 runs] (compound 3.16 µM). In addition, the concentration for half-maximal inhibition (IC50) (compound alone, run of 11/06/2023) was more than 10000 nM.

Regarding `CNCc1ccc(-c2[nH]c3cc(F)cc4c3c2CCNC4=O)cc1` + Cc1cccc(N(C)C(=O)C2C(O)CCN2c2nc(C)cc(C(F)(F)F)c2C#N)c1, the IC50 is more than 10000 nM (curve of first compound, second compound 0.0316 µM); more than 10000 nM (curve of first compound, second compound 0.1 µM); more than 10000 nM (curve of first compound, second compound 0.316 µM); more than 10000 nM (curve of first compound, second compound 1 µM); more than 10000 nM (curve of first compound, second compound 3.16 µM); more than 10000 nM (curve of first compound, second compound 10 µM). Moreover, the viability, T/C reads like this: (second compound 0.0316 µM, first compound 0.0316 µM) 105%; (second compound 0.0316 µM, first compound 0.1 µM) 97.5%; (second compound 0.0316 µM, first compound 0.316 µM) 104%; (second compound 0.0316 µM, first compound 1 µM) 102%; (second compound 0.0316 µM, first compound 3.16 µM) 102%; (second compound 0.0316 µM, first compound 10 µM) 97.5%. The viability, T/C is 81.2% (second compound 0.1 µM, first compound 0.0316 µM); 98.9% (second compound 0.1 µM, first compound 0.1 µM); 107% (second compound 0.1 µM, first compound 0.316 µM); 108% (second compound 0.1 µM, first compound 1 µM); 115% (second compound 0.1 µM, first compound 3.16 µM); 91.1% (second compound 0.1 µM, first compound 10 µM). Also, the viability, T/C reads like this: (second compound 0.316 µM, first compound 0.0316 µM) 103%; (second compound 0.316 µM, first compound 0.1 µM) 109%; (second compound 0.316 µM, first compound 0.316 µM) 94.8%; (second compound 0.316 µM, first compound 1 µM) 105%; (second compound 0.316 µM, first compound 3.16 µM) 93.8%; (second compound 0.316 µM, first compound 10 µM) 91.7%. The viability, T/C is, setting by setting: (second compound 1 µM, first compound 0.0316 µM) 102%; (second compound 1 µM, first compound 0.1 µM) 105%; (second compound 1 µM, first compound 0.316 µM) 95.2%; (second compound 1 µM, first compound 1 µM) 95%; (second compound 1 µM, first compound 3.16 µM) 105%; (second compound 1 µM, first compound 10 µM) 76.9%. Also, the viability, T/C was 100% (second compound 3.16 µM, first compound 0.0316 µM); 108% (second compound 3.16 µM, first compound 0.1 µM); 107% (second compound 3.16 µM, first compound 0.316 µM); 105% (second compound 3.16 µM, first compound 1 µM); 115% (second compound 3.16 µM, first compound 3.16 µM); 78.4% (second compound 3.16 µM, first compound 10 µM). Also, the viability, T/C runs as follows: (second compound 10 µM, first compound 0.0316 µM) 106%; (second compound 10 µM, first compound 0.1 µM) 98.4%; (second compound 10 µM, first compound 0.316 µM) 107%; (second compound 10 µM, first compound 1 µM) 90.1%; (second compound 10 µM, first compound 3.16 µM) 94.2%; (second compound 10 µM, first compound 10 µM) 69.4%.
